Bounds are passed on as bounds.

The target in data set [1] is T1, Indoleamine 2,3-dioxygenase 1 (Homo sapiens, UniProt P14902). In words: Inhibition of human N-terminal GST-tagged IDO1 expressed in Escherichia coli Rosetta(DE3) pLysS using L-tryptophan as substrate measured after 1 hr by fluorescence assay.
For data set [2], the target named is T1, Indoleamine 2,3-dioxygenase 1. Description: Inhibition of IDO1 in interferon-gamma-induced human SKOV3 cells assessed as N-formylkynurenine formation using L-tryptophan as substrate measured after 24 hrs by fluorescence assay.
Data set [3] can be described thus: Half life in human liver microsomes. The data set is classed as ADME, Microsome.
The nature of data set [4]: Half life in mouse liver microsomes. The data set is classed as ADME, Microsome. (Microsomes from liver hold many membrane-bound enzymes, among them those of drug oxidation.)
The target in the next data set is T2, UGT1A9 (Homo sapiens, UniProt O60656).
T2 sequence (O60656 whole entry): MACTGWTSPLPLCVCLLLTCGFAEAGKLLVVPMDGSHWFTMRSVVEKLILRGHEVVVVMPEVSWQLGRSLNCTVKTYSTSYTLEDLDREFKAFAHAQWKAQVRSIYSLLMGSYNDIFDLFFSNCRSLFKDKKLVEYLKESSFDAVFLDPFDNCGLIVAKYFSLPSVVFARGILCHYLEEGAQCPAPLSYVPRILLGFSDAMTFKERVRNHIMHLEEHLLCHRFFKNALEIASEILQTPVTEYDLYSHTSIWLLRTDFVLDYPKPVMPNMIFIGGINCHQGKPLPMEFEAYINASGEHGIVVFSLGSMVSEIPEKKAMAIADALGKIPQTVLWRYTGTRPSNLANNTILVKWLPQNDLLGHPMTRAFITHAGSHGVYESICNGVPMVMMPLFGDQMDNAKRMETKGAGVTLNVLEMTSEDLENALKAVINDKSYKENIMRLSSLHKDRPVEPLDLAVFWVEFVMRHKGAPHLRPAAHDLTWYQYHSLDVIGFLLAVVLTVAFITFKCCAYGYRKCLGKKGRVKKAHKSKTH
In words: Stability assessed as recombinant UGT1A9 (unknown origin) mediated compound glucuronidation by measuring half-life at 1 uM incubated in water bath by shaking at 37 degree C measured upto 60 mins in presence of UDPGA by LC-MS/MS analysis. The data set is classed as ADME.

Data set [5] deals with Tryptophan 2,3-dioxygenase (Homo sapiens, UniProt P48775). In words: Inhibition of TDO in human HEK cells. The data set is classed as cell-based.
Data set [6] concerns the target T1, Indoleamine 2,3-dioxygenase 1. Description: Inhibition IDO1 in LPS/IFN-gamma stimulated human whole blood assessed as reduction in tryptophan/kynurenine level preincubated for 15 mins followed by LPS/IFN-gamma stimulation measured after 20 hrs by LC-MS/MS analysis. The data set is classed as tissue-based.
In another data set the target is Cytochrome P450 3A4 (Homo sapiens, UniProt P08684). Description: Inhibition of CYP3A4 (unknown origin). The format is ADME.
In the next data set the target is Cytochrome P450 2D6 (Homo sapiens, UniProt P10635). Description: Inhibition of CYP2D6 (unknown origin). The format is ADME.
The target of another data set is Cytochrome P450 2C9 (Homo sapiens, UniProt P11712). In words: Inhibition of CYP2C9 (unknown origin). The format is ADME.
A further data set has as its target Cytochrome P450 2C19 (Homo sapiens, UniProt P33261). In words: Inhibition of CYP2C19 (unknown origin). The data set is classed as ADME.
Data set [7] in a line: Cmax in mouse at 10 mg/kg, po by capillary micro-sampling analysis. The format is ADME, organism-based. Also noted: dose 10 mg/kg, route oral. To be noted: in vivo.
Data set [8] in a line: AUC (0 to 24 hrs) in mouse at 10 mg/kg, po by capillary micro-sampling analysis. Further details: dose 10 mg/kg, time < 24 hr, route oral. To be noted: in vivo. The data set is classed as ADME, organism-based.
A short description of data set [9]: Half life in mouse at 10 mg/kg, po by capillary micro-sampling analysis. The format is ADME, organism-based. To be noted: in vivo.
Data set [10] can be described thus: AUC(0 to 12 hrs) at steady state in human assessed as ratio of glucuronide to compound at 50 mg, bid measured after 10 days. The format is ADME. The conditions noted are these: in vivo.

T1 sequence (P14902 whole entry): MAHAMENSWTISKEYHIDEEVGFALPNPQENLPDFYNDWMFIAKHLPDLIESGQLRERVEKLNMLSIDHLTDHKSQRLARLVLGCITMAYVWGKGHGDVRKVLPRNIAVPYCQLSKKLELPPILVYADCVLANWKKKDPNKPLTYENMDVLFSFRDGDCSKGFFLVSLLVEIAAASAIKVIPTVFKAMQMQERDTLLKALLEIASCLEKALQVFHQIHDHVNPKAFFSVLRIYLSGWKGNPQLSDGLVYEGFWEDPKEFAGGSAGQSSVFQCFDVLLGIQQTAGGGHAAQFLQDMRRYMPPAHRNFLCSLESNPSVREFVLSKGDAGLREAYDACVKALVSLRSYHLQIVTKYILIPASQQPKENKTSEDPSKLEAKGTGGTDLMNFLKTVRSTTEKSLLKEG
Chain of Cytochrome P450 2D6 (P10635 whole entry): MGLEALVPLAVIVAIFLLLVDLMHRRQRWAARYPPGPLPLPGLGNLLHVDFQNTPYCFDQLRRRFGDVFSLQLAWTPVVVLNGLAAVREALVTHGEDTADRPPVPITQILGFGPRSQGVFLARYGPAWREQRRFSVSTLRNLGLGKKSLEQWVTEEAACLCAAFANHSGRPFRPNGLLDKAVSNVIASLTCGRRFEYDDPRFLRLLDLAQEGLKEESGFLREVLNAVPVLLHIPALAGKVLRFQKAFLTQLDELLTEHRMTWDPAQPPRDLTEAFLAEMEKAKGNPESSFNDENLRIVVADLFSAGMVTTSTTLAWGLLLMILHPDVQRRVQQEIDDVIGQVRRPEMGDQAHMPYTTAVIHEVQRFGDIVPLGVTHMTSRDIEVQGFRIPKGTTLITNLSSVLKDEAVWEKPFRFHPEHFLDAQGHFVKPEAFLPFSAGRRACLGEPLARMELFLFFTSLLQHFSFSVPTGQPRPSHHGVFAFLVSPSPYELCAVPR
Chain of Cytochrome P450 3A4 (P08684 whole entry): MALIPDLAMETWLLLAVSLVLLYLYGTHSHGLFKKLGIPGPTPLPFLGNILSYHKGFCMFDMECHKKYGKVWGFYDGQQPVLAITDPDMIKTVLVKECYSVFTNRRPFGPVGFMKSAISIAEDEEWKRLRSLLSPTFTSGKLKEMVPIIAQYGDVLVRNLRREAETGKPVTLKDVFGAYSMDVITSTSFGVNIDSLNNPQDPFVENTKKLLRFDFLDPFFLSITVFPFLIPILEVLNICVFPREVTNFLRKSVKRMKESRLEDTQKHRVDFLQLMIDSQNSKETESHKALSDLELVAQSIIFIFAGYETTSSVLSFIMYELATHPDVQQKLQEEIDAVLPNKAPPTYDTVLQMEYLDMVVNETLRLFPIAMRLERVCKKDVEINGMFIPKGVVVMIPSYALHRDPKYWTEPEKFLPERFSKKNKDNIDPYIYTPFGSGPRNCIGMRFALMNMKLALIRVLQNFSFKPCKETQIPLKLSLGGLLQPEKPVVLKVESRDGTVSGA
Chain of Cytochrome P450 2C19 (P33261 whole entry): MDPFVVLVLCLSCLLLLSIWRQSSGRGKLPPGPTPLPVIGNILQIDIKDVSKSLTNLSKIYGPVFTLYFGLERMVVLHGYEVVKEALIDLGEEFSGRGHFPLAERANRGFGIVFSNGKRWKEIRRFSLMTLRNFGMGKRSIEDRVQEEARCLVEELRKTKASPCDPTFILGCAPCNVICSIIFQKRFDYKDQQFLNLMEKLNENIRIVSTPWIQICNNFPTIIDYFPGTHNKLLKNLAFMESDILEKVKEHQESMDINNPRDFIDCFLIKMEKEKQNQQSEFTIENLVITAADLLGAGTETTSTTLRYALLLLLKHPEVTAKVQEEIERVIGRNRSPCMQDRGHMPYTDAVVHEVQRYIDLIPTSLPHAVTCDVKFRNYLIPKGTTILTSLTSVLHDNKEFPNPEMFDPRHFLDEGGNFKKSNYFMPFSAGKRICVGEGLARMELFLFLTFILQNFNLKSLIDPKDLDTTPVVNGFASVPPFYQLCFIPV
Chain of Cytochrome P450 2C9 (P11712 whole entry): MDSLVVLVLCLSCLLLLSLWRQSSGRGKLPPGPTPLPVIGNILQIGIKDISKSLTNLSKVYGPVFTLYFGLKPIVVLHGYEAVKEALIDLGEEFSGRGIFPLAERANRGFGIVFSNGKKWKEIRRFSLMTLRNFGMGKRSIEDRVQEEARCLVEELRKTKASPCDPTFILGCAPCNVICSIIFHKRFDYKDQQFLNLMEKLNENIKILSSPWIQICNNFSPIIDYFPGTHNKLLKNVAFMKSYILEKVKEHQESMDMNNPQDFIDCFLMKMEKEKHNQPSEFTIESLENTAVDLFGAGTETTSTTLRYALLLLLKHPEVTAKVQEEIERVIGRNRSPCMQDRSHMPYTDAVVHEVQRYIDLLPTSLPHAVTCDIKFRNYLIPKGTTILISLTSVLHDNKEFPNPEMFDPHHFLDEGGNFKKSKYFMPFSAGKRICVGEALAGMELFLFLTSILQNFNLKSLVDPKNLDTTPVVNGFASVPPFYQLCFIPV
Chain of Tryptophan 2,3-dioxygenase (P48775 whole entry): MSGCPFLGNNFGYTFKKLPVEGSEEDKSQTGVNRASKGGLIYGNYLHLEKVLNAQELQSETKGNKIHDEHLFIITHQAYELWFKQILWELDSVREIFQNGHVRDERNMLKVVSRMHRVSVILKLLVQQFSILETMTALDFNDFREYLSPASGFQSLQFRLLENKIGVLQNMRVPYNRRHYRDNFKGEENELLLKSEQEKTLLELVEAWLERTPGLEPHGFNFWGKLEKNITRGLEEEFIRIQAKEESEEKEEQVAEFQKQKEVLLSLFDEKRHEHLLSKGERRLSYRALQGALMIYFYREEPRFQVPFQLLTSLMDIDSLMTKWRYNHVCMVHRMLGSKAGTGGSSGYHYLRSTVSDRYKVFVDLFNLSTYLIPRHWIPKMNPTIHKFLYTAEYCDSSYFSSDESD

Turning to `N#CCC(=O)NCCSc1nonc1/C(=N/O)Nc1ccc(F)c(C(F)F)c1`, the IC50 (as a rule, the concentration that inhibits the measured activity by half) in data set [1] was determined as 0.18 µM; in data set [2], 0.0065 µM. The figures for the half-life in [3] and in data set [4] were 2.77 h and 0.278 h, respectively. The half-life – broadly, how long it takes for the measured level to halve – at 1 µM on UGT1A9 worked out at 1.73 h.

Take `CC(C)(O)CC(=O)NCCSc1nonc1/C(=N/O)Nc1ccc(F)c(C(F)F)c1`: the IC50 in data set [1] came out at 0.14 µM; in data set [2], 0.0084 µM. In addition, the half-life in data set [3] is 0.937 h; in data set [4] it was 0.175 h. Also, the half-life at 1 µM at UGT1A9 was above 3 h.

As for `CS(=O)(=O)CCC(=O)NCCSc1nonc1/C(=N/O)Nc1ccc(F)c(Br)c1`, the half-inhibitory concentration (IC50) in data set [1] was determined as 0.14 µM; in data set [2], 0.0076 µM. For the same compound, the half-life in data set [3] came to 2.43 h; in data set [4], 1.66 h. For the same compound, the half-life at 1 µM at UGT1A9 amounted to 0.858 h.

For the compound `NS(=O)(=O)NCC(=O)NCCSc1nonc1/C(=N/O)Nc1ccc(F)c(C(F)F)c1`, the IC50 in data set [1] is 0.093 µM; in data set [2], 0.021 µM; in data set [5], above 10 µM; in [6] it was 0.32 µM; against Cytochrome P450 3A4, above 10 µM; against Cytochrome P450 2D6, above 10 µM. Further, the IC50 on Cytochrome P450 2C9 and at Cytochrome P450 2C19 was above 10 µM throughout. Moreover, the half-life in data set [3] is above 3 h; in [4], 2.75 h; in data set [9], 3.6 h. The half-life at 1 µM on UGT1A9 is above 3 h. For the same compound, the Cmax (as a rule, the maximum level reached in the sampled fluid or tissue) in data set [7] was determined as 3.3 µM. Moreover, in [8], the AUC(0-t) (commonly exposure summed from dosing to a finite time, without extrapolation to infinity) at 24 h worked out at 30 µM·h.

Take `N#Cc1cccc(N/C(=N\O)c2nonc2SCCNC(=O)CS(N)(=O)=O)c1`: the IC50 turned out to be 0.24 µM in [1] and 0.044 µM in data set [2]. In addition, the half-life in data set [3] and in [4] was above 3 h in each case. Moreover, at UGT1A9, the half-life at 1 µM is above 3 h.

Take `C[C@@H](CSc1nonc1/C(=N/O)Nc1ccc(F)c(Br)c1)NC(=O)CS(N)(=O)=O`: the IC50 is 0.093 µM in data set [1] and 0.019 µM in data set [2]. In addition, the half-life in data set [3] was 1.57 h; in data set [4], 0.398 h. The half-life at 1 µM at UGT1A9 is above 3 h.

For the compound `CC1(C(=O)NCCSc2nonc2/C(=N/O)Nc2ccc(F)c(C(F)F)c2)CCN1` (stereo unspecified), the results for the IC50 in [1] and in data set [2] were 0.36 µM and 0.016 µM, respectively. The half-life in [3] was 1.97 h; in data set [4], 0.268 h. Further, the half-life at 1 µM at UGT1A9 was above 3 h.

For `NS(=O)(=O)CC(=O)NCCSc1nonc1/C(=N/O)Nc1ccc(F)c(Br)c1`, the figures for the IC50 in data set [1] and in data set [2] were 0.071 µM and 0.012 µM, respectively. Moreover, the half-life in [3] was determined as 2.37 h; in data set [4], 1.12 h. Also, the half-life at 1 µM at UGT1A9 was determined as 0.758 h.

Take `N#Cc1cc(N/C(=N\O)c2nonc2SCCNC(=O)CS(N)(=O)=O)ccc1F`: the IC50 worked out at 0.15 µM in data set [1] and 0.039 µM in data set [2]. Besides, the half-life is above 3 h in data set [3] and 2.38 h in [4]. For the same compound, the half-life at 1 µM on UGT1A9 is above 3 h.

On to `NS(=O)(=O)NCCNc1nonc1C(=NO)Nc1ccc(F)c(Br)c1` [EPACADOSTAT], for which the half-life at 1 µM on UGT1A9 amounted to 0.383 h.

As to `NS(=O)(=O)CC(=O)NCCSc1nonc1/C(=N/O)Nc1cccc(C(F)F)c1`, the IC50 is 0.13 µM in [1] and 0.017 µM in [2]. Further, the figures for the half-life in data set [3] and in [4] were above 3 h and 1.5 h, respectively. Further, on UGT1A9, the half-life at 1 µM was above 3 h.

As to `NS(=O)(=O)CC(=O)NCCSc1nonc1/C(=N/O)Nc1cccc(C(F)(F)F)c1`, the IC50 in data set [1] was found to be 0.14 µM; in [2], 0.012 µM. Moreover, the half-life in [3] turned out to be 1.95 h; in data set [4], 0.44 h. Moreover, on UGT1A9, the half-life at 1 µM was above 3 h.

Regarding `CS(=O)(=O)NCCSc1nonc1/C(=N/O)Nc1ccc(F)c(Br)c1`, the IC50 in data set [1] turned out to be 0.27 µM; in [2], 0.0093 µM. The half-life came to 1.73 h in data set [3] and 0.29 h in [4]. Besides, on UGT1A9, the half-life at 1 µM worked out at 0.357 h.

In the case of `NS(=O)(=O)CC(=O)NCCSc1nonc1/C(=N/O)Nc1ccc(F)c(C(F)(F)F)c1`, the IC50 in [1] worked out at 0.084 µM; in data set [2], 0.013 µM. Also, the half-life in data set [3] amounted to 1.88 h; in data set [4] it was 0.923 h. Further, the half-life at 1 µM on UGT1A9 was found to be 1.45 h.

With `CS(=N)(=O)CC(=O)NCCSc1nonc1/C(=N/O)Nc1ccc(F)c(Br)c1` (stereo unspecified), the IC50 in data set [1] was determined as 0.061 µM; in data set [2], 0.014 µM. For the same compound, the half-life in [3] worked out at 2.65 h; in [4] it was 1.25 h. Besides, the half-life at 1 µM at UGT1A9 is 1.53 h.

Take `CSc1nonc1/C(=N/O)Nc1ccc(F)c(Br)c1`: the figures for the IC50 in data set [1] and in [2] were 0.56 µM and 0.015 µM, respectively.

As to `NS(=O)(=O)NCCSc1nonc1/C(=N/O)Nc1ccc(F)c(Br)c1`, the IC50 in [1] amounted to 0.13 µM; in data set [2], 0.0028 µM. Also, the half-life at 1 µM on UGT1A9 was 0.183 h.

As for `O=C(NCCSc1nonc1/C(=N/O)Nc1ccc(F)c(C(F)F)c1)C1CS(=O)(=O)C1`, the IC50 in data set [1] turned out to be 0.07 µM; in [2], 0.013 µM. The results for the half-life in data set [3] and in [4] were 1.28 h and 0.245 h, respectively. Besides, on UGT1A9, the half-life at 1 µM is above 3 h.

Turning to `NS(=O)(=O)NCCNc1nonc1/C(=N/OC1OC(C(=O)O)C(O)C(O)C1O)Nc1ccc(F)c(Br)c1` (stereo unspecified), the Ratio in data set [10] was determined as 8.1.

For the compound `C[C@H](CSc1nonc1/C(=N/O)Nc1ccc(F)c(Br)c1)NC(=O)CS(N)(=O)=O`, the IC50 in data set [1] was 0.11 µM; in data set [2], 0.012 µM. Moreover, the half-life in data set [3] is 0.77 h; in data set [4] it was 0.537 h. Besides, the half-life at 1 µM at UGT1A9 worked out at 1.33 h.

Turning to `CS(=O)(=O)CC(=O)NCCSc1nonc1/C(=N/O)Nc1ccc(F)c(C(F)F)c1`, the figures for the IC50 in data set [1] and in [2] were 0.1 µM and 0.014 µM, respectively. Further, the figures for the half-life in [3] and in data set [4] were 1.27 h and 0.765 h, respectively. In addition, the half-life at 1 µM on UGT1A9 worked out at 1.59 h.

For the compound `COc1nonc1/C(=N/O)Nc1ccc(F)c(Br)c1`, the IC50 was found to be 0.23 µM in data set [1] and 0.039 µM in data set [2].

On to `NS(=O)(=O)CC(=O)NCCSc1nonc1/C(=N/O)Nc1cccc(Br)c1`, for which the IC50 is 0.03 µM in data set [1] and 0.0081 µM in [2]. Further, the half-life in data set [3] was above 3 h; in data set [4] it was 0.918 h. The half-life at 1 µM at UGT1A9 amounted to 0.955 h.

`NS(=O)(=O)CC(=O)NCCSc1nonc1/C(=N/O)Nc1ccc(F)c(C(F)F)c1`: the IC50 amounted to 0.073 µM in data set [1] and 0.013 µM in data set [2]. For the same compound, the half-life came to 2.77 h in data set [3] and 1.07 h in data set [4]. Further, on UGT1A9, the half-life at 1 µM was above 3 h.

Consider `NS(=O)(=O)NCCOc1nonc1/C(=N/O)Nc1ccc(F)c(Br)c1`, for which the IC50 in data set [1] stood at 0.15 µM; in [2], 0.012 µM. Also, at UGT1A9, the half-life at 1 µM came out at 0.0483 h.

These data come from ChEMBL document CHEMBL4334553, “Discovery of Hydroxyamidine Based Inhibitors of IDO1 for Cancer Immunotherapy with Reduced Potential for Glucuronidation” (ACS Med Chem Lett, 2020).
